# pEC50, pIC50: −log10 of the molar value. Where “and” joins values, the source holds several entries; their conditions need not be identical. Identical values can stand only once.
# Test system: SARS-CoV-2 strain Slovakia/SK-BMC5/2020
# Experiment: microbe, parasite or virus in culture
# Format: cell-based
# Conditions: Severe acute respiratory syndrome coronavirus 2, Vero C1008, 72 h, read-out: EC50 Plaque reduction assay
row,SMILES,pEC50
1,"N#CSc1cc(SC#N)c(N)nc1N [Compound C4, PR-619, reference compound]",5.05
2,NCCCNC(=O)OC1C/C(=C\c2ccc([N+](=O)[O-])cc2)C(=O)/C(=C/c2ccc([N+](=O)[O-])cc2)C1 (stereo not shown) [Compound T98],5.17
3,CC(C)(C)OC(=O)NCCCC[C@H](NC(=O)OC1C/C(=C\c2ccc([N+](=O)[O-])cc2)C(=O)/C(=C/c2ccc([N+](=O)[O-])cc2)C1)C(=O)O (stereo partly shown) [Compound T105],< 4.52
4,CC(C)C[C@H](NC(=O)OC1C/C(=C\c2ccc([N+](=O)[O-])cc2)C(=O)/C(=C/c2ccc([N+](=O)[O-])cc2)C1)C(N)=O (stereo partly shown) [Compound T120],5.47
5,NC(=O)[C@H](Cc1ccccc1)NC(=O)OC1C/C(=C\c2ccc([N+](=O)[O-])cc2)C(=O)/C(=C/c2ccc([N+](=O)[O-])cc2)C1 (stereo partly shown) [Compound T121],5.08
6,NCCCNC(=O)OC1C/C(=C\c2ccc([N+](=O)[O-])cc2)C(O)/C(=C/c2ccc([N+](=O)[O-])cc2)C1 (stereo not shown) [Compound T122],4.77
7,CC(C)C[C@H](N)C(=O)NCCCNC(=O)OC1C/C(=C\c2ccc([N+](=O)[O-])cc2)C(=O)/C(=C/c2ccc([N+](=O)[O-])cc2)C1 (stereo partly shown) [Compound T124],4.80
8,"O=C1/C(=C/c2ccc([N+](=O)[O-])cc2)CNC/C1=C\c1ccc([N+](=O)[O-])cc1 [RA-9, reference compound]",4.92

# Same assay, conditions: Severe acute respiratory syndrome coronavirus 2, Vero C1008, read-out: EC50 from the sigmoidal model (Figure 3 B1-B5)
row,SMILES,pEC50
1,NCCCNC(=O)OC1C/C(=C\c2ccc([N+](=O)[O-])cc2)C(=O)/C(=C/c2ccc([N+](=O)[O-])cc2)C1 (stereo not shown) [Compound T98],5.17
2,CC(C)C[C@H](NC(=O)OC1C/C(=C\c2ccc([N+](=O)[O-])cc2)C(=O)/C(=C/c2ccc([N+](=O)[O-])cc2)C1)C(N)=O (stereo partly shown) [Compound T120],5.47
3,NC(=O)[C@H](Cc1ccccc1)NC(=O)OC1C/C(=C\c2ccc([N+](=O)[O-])cc2)C(=O)/C(=C/c2ccc([N+](=O)[O-])cc2)C1 (stereo partly shown) [Compound T121],5.08
4,NCCCNC(=O)OC1C/C(=C\c2ccc([N+](=O)[O-])cc2)C(O)/C(=C/c2ccc([N+](=O)[O-])cc2)C1 (stereo not shown) [Compound T122],4.77
5,CC(C)C[C@H](N)C(=O)NCCCNC(=O)OC1C/C(=C\c2ccc([N+](=O)[O-])cc2)C(=O)/C(=C/c2ccc([N+](=O)[O-])cc2)C1 (stereo partly shown) [Compound T124],4.80

# Same assay, conditions: VERO-E6 cells, MOI 1.0, 72 h, 0.1-30 µM; n/o = no antiviral effect observed within the concentration range
row,SMILES,EC50 Plaque reduction assay
1,CC(C)(C)OC(=O)NCCCC[C@H](NC(=O)OC1C/C(=C\c2ccc([N+](=O)[O-])cc2)C(=O)/C(=C/c2ccc([N+](=O)[O-])cc2)C1)C(=O)O (stereo partly shown) [Compound T105],no antiviral effect was observed and n/o

# Molecular target: T1, SARS-CoV-2 PL^pro (Severe acute respiratory syndrome coronavirus 2, UniProt P0DTD1)
# Experiment: biochemical
# Format: biochemical
# Conditions: not given
row,SMILES,pIC50
1,CC(C)(C)OC(=O)NCCCC[C@H](NC(=O)OC1C/C(=C\c2ccc([N+](=O)[O-])cc2)C(=O)/C(=C/c2ccc([N+](=O)[O-])cc2)C1)C(=O)O (stereo partly shown) [Compound T105],< 4.00
2,NC(=O)[C@H](Cc1ccccc1)NC(=O)OC1C/C(=C\c2ccc([N+](=O)[O-])cc2)C(=O)/C(=C/c2ccc([N+](=O)[O-])cc2)C1 (stereo partly shown) [Compound T121],< 4.00
3,CC(C)C[C@H](N)C(=O)NCCCNC(=O)OC1C/C(=C\c2ccc([N+](=O)[O-])cc2)C(=O)/C(=C/c2ccc([N+](=O)[O-])cc2)C1 (stereo partly shown) [Compound T124],< 4.00

# Same assay, conditions: protease activity; 1 h at 37 °C; 1 mM DTT; read-out: IC50 Enzyme assay PA PL^pro
row,SMILES,pIC50
1,"N#CSc1cc(SC#N)c(N)nc1N [Compound C4, PR-619, reference compound]",7.00

# Same assay, conditions: read-out: IC50 Enzyme assay PA PL^pro; protease activity; 1 h at 37 °C; 1 mM DTT
row,SMILES,pIC50
1,NCCCNC(=O)OC1C/C(=C\c2ccc([N+](=O)[O-])cc2)C(=O)/C(=C/c2ccc([N+](=O)[O-])cc2)C1 (stereo not shown) [Compound T98],> 4.00
2,CC(C)C[C@H](NC(=O)OC1C/C(=C\c2ccc([N+](=O)[O-])cc2)C(=O)/C(=C/c2ccc([N+](=O)[O-])cc2)C1)C(N)=O (stereo partly shown) [Compound T120],> 4.00
3,NCCCNC(=O)OC1C/C(=C\c2ccc([N+](=O)[O-])cc2)C(O)/C(=C/c2ccc([N+](=O)[O-])cc2)C1 (stereo not shown) [Compound T122],> 4.00

# Test system: VERO-E6, Caco-2, PK-15, and A549 cells
# Experiment: Cell viability MTT assay, averaged over screened cell lines
# Conditions: concentration causing >40% reduction in number of viable cells, 72 h, 0.5-30 µM, n/o = no cytotoxic effect observed within the concentration range
row,SMILES,CTE Cell viability MTT assay
1,"N#CSc1cc(SC#N)c(N)nc1N [Compound C4, PR-619, reference compound]",>10.0 µM
2,NCCCNC(=O)OC1C/C(=C\c2ccc([N+](=O)[O-])cc2)C(=O)/C(=C/c2ccc([N+](=O)[O-])cc2)C1 (stereo not shown) [Compound T98],>15.0 to 30.0 µM
3,CC(C)(C)OC(=O)NCCCC[C@H](NC(=O)OC1C/C(=C\c2ccc([N+](=O)[O-])cc2)C(=O)/C(=C/c2ccc([N+](=O)[O-])cc2)C1)C(=O)O (stereo partly shown) [Compound T105],no observed cytotoxic effect and n/o
4,CC(C)C[C@H](NC(=O)OC1C/C(=C\c2ccc([N+](=O)[O-])cc2)C(=O)/C(=C/c2ccc([N+](=O)[O-])cc2)C1)C(N)=O (stereo partly shown) [Compound T120],>10.0 µM
5,NC(=O)[C@H](Cc1ccccc1)NC(=O)OC1C/C(=C\c2ccc([N+](=O)[O-])cc2)C(=O)/C(=C/c2ccc([N+](=O)[O-])cc2)C1 (stereo partly shown) [Compound T121],>10.0 to 15.0 µM
6,NCCCNC(=O)OC1C/C(=C\c2ccc([N+](=O)[O-])cc2)C(O)/C(=C/c2ccc([N+](=O)[O-])cc2)C1 (stereo not shown) [Compound T122],>30.0 µM
7,CC(C)C[C@H](N)C(=O)NCCCNC(=O)OC1C/C(=C\c2ccc([N+](=O)[O-])cc2)C(=O)/C(=C/c2ccc([N+](=O)[O-])cc2)C1 (stereo partly shown) [Compound T124],>30.0 µM
8,"O=C1/C(=C/c2ccc([N+](=O)[O-])cc2)CNC/C1=C\c1ccc([N+](=O)[O-])cc1 [RA-9, reference compound]",>30.0 µM

# Same assay, conditions: concentration causing >40% reduction in number of viable cells, 72 h, 0.5-30 µM, n/o = no cytotoxic effect observed within the concentration range, listed as PR-619
row,SMILES,CTE Cell viability MTT assay
1,"N#CSc1cc(SC#N)c(N)nc1N [Compound C4, PR-619, reference compound]",5 to 10 µM

# Molecular target: T1, SARS-CoV-2 PL^pro
# Experiment: biochemical
# Conditions: not given
# Remark: another data set of the same source
row,SMILES,pIC50
1,CC(C)(C)OC(=O)NCCCC[C@H](NC(=O)OC1C/C(=C\c2ccc([N+](=O)[O-])cc2)C(=O)/C(=C/c2ccc([N+](=O)[O-])cc2)C1)C(=O)O (stereo partly shown) [Compound T105],< 4.00
2,NC(=O)[C@H](Cc1ccccc1)NC(=O)OC1C/C(=C\c2ccc([N+](=O)[O-])cc2)C(=O)/C(=C/c2ccc([N+](=O)[O-])cc2)C1 (stereo partly shown) [Compound T121],< 4.00
3,CC(C)C[C@H](N)C(=O)NCCCNC(=O)OC1C/C(=C\c2ccc([N+](=O)[O-])cc2)C(=O)/C(=C/c2ccc([N+](=O)[O-])cc2)C1 (stereo partly shown) [Compound T124],< 4.00

# Same assay, conditions: deubiquitinase activity; 1 h at 37 °C; 1 mM DTT; read-out: IC50 Enzyme assay DUA PL^pro
row,SMILES,pIC50
1,"N#CSc1cc(SC#N)c(N)nc1N [Compound C4, PR-619, reference compound]",6.70

# Test system: VERO-E6 cells
# Experiment: Cell viability MTT assay in VERO-E6 cells
# Format: cell-based, African Green Monkey
# Conditions: VERO-E6 cell line, 72 h
row,SMILES,CTE in VERO-E6 cells
1,NCCCNC(=O)OC1C/C(=C\c2ccc([N+](=O)[O-])cc2)C(=O)/C(=C/c2ccc([N+](=O)[O-])cc2)C1 (stereo not shown) [Compound T98],> 15 µM and 10 to 15 µM
2,CC(C)C[C@H](NC(=O)OC1C/C(=C\c2ccc([N+](=O)[O-])cc2)C(=O)/C(=C/c2ccc([N+](=O)[O-])cc2)C1)C(N)=O (stereo partly shown) [Compound T120],> 10 µM and 10 to 15 µM
3,NC(=O)[C@H](Cc1ccccc1)NC(=O)OC1C/C(=C\c2ccc([N+](=O)[O-])cc2)C(=O)/C(=C/c2ccc([N+](=O)[O-])cc2)C1 (stereo partly shown) [Compound T121],10 to 15 µM
4,NCCCNC(=O)OC1C/C(=C\c2ccc([N+](=O)[O-])cc2)C(O)/C(=C/c2ccc([N+](=O)[O-])cc2)C1 (stereo not shown) [Compound T122],> 30 µM
5,CC(C)C[C@H](N)C(=O)NCCCNC(=O)OC1C/C(=C\c2ccc([N+](=O)[O-])cc2)C(=O)/C(=C/c2ccc([N+](=O)[O-])cc2)C1 (stereo partly shown) [Compound T124],> 30 µM

# Molecular target: SARS-CoV-2 M^pro (Severe acute respiratory syndrome coronavirus 2, UniProt P0DTD1)
# Experiment: biochemical
# Conditions: not given
row,SMILES,pIC50
1,NCCCNC(=O)OC1C/C(=C\c2ccc([N+](=O)[O-])cc2)C(=O)/C(=C/c2ccc([N+](=O)[O-])cc2)C1 (stereo not shown) [Compound T98],< 4.00
2,CC(C)(C)OC(=O)NCCCC[C@H](NC(=O)OC1C/C(=C\c2ccc([N+](=O)[O-])cc2)C(=O)/C(=C/c2ccc([N+](=O)[O-])cc2)C1)C(=O)O (stereo partly shown) [Compound T105],< 4.00
3,CC(C)C[C@H](NC(=O)OC1C/C(=C\c2ccc([N+](=O)[O-])cc2)C(=O)/C(=C/c2ccc([N+](=O)[O-])cc2)C1)C(N)=O (stereo partly shown) [Compound T120],< 4.00
4,NC(=O)[C@H](Cc1ccccc1)NC(=O)OC1C/C(=C\c2ccc([N+](=O)[O-])cc2)C(=O)/C(=C/c2ccc([N+](=O)[O-])cc2)C1 (stereo partly shown) [Compound T121],< 4.00
5,NCCCNC(=O)OC1C/C(=C\c2ccc([N+](=O)[O-])cc2)C(O)/C(=C/c2ccc([N+](=O)[O-])cc2)C1 (stereo not shown) [Compound T122],< 4.00
6,CC(C)C[C@H](N)C(=O)NCCCNC(=O)OC1C/C(=C\c2ccc([N+](=O)[O-])cc2)C(=O)/C(=C/c2ccc([N+](=O)[O-])cc2)C1 (stereo partly shown) [Compound T124],< 4.00

# Same assay, conditions: protease activity; 4 h at room temperature; 1 mM DTT; read-out: IC50 Enzyme assay PA M^pro
row,SMILES,pIC50
1,"N#CSc1cc(SC#N)c(N)nc1N [Compound C4, PR-619, reference compound]",6.15

# Reference: article PMC10791089, “Identification and evaluation of antiviral activity of novel compounds targeting SARS-CoV-2 virus by enzymatic and antiviral assays, and computational analysis” (Journal of Enzyme Inhibition and Medicinal Chemistry, 2024)
